1 compound from PMC4450806, “The cytochrome bd-type quinol oxidase is important for survival of Mycobacterium smegmatis under peroxide and antibiotic-induced stress” (Scientific Reports, 2015) can be followed below.

SMILES strings stand for the structures.

This test has as its target T1, cytochrome bd-type quinol oxidase (cytochrome bd) (Mycolicibacterium smegmatis, UniProt A0QXA8).
T1 construct: gene MSMEG_3233; native enzyme in inverted membrane vesicles of the ΔqcrCAB :: hyg strain (cytochrome bd as the only respiratory branch); with CydB (cytochrome bd subunit)
As to the kind of experiment: NADH-driven oxygen consumption of inverted membrane vesicles (Clark-type electrode), wild-type versus bc1-knockout strain. In kind it is biochemical.

Take `CC(C)=CCC/C(C)=C/CC/C(C)=C/Cc1c(C)[nH]c2ccccc2c1=O` [aurachin D]: the 50% inhibitory concentration (IC50) was roughly 400 nM.

By IC50 is commonly meant the concentration at which inhibition is half-maximal. Read a high IC50 as weaker potency.
